What was measured:
pancreatic lipase = settings: peptides identified from fractionated canary seed proteins; cited from earlier work
C57BL/6J mice [1] = assay: Serum biochemical analysis (TG, HDL, LDL/VLDL, total cholesterol); assay type: in vivo; settings: orlistat 40 mg/kg/day, 8 weeks, fasting serum
Description: Total serum high-density lipoprotein (HDL), low-density lipoprotein (LDL)/very low-density lipoprotein (VLDL), and total cholesterol levels were quantified with HDL, and LDL/VLDL Colorimetric/Fluorometric assay Kit (LSK314100) obtained from Lifespan Bioscience (Seattle, […], USA). The assays were carried out following the manufacturer's instructions, and the absorbance was measured using Multiskan™ FC Microplate Photometer (Waltham, MA, USA). In addition, serum triglyceride (TG) levels were measured using a triglyceride colorimetric kit (LSK302200) purchased from Lifespan Bioscience (Seattle, DC, USA).

C57BL/6J mice [2] = assay: Organ and epididymal fat weight; assay type: in vivo; settings: orlistat 40 mg/kg/day, 8 weeks, Western diet
Description: The total body weight gain (g/animal), daily feed intake (g/animal/day), and water consumption was monitored weekly throughout the study. The fecal collection was done per cage, separating fecal matter from bedding on a weekly basis and then stored at −80±3° C. until analysis. After the eight weeks of the study, animals were sacrificed by CO2 asphyxiation. Immediately after, blood was collected by cardiac puncture.

[3] = molecular target: T1, pancreatic lipase type-VI (Sus scrofa, UniProt P00591); assay: Pancreatic lipase inhibition and jump dilution (residence time); assay type: biochemical
T1 sequence (P00591 1-450): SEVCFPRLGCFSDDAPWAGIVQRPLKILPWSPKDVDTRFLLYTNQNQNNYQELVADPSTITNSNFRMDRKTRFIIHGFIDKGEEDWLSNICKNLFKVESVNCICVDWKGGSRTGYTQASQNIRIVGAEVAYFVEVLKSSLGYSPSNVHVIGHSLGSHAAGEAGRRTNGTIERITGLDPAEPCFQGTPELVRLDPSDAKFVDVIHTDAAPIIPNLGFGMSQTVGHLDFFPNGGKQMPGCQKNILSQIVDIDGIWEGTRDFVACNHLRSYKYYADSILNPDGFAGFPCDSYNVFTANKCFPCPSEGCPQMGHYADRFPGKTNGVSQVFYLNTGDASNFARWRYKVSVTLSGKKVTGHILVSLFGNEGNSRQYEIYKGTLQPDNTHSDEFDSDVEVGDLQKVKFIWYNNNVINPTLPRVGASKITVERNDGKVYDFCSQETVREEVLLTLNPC
Description: Pancreatic lipase inhibition was measured according to the procedures described in our previous study. Briefly, samples, substrate, and pancreatic lipase were dis-solved in McIlvaine buffer (0.1 M Citrate-Na2HPO4, pH 7.4). Then, 50 μL of substrate 4-methylumbelliferyl oleate (1 mM) was pre-incubated with 25 μL of peptide sample for 10 min in a black 96-well microplate. Then, 25 μL of pancreatic lipase type-VI (200 U/mL) were pipetted, and the reaction was carried out for one hour. The production of 4-methylumbelliferone was measured fluorometrically using a Fluoroskan Ascent FL Microplate Fluorometer and Luminometer, ThermoFisher Scientific (Waltham, MA, USA) using an excitation wavelength of 355 nm and emission wavelength of 460 nm. The positive control (no inhibitor) used the buffer instead of the sample, and buffer was used instead of pancreatic lipase solution for negative control (no pancreatic lipase activity). Finally, a jump dilution experiment was carried out, as previously reported by Kumar and Lowery. Briefly, enzyme-inhibitor complexes were formed by pre-incubating the substrate, pancreatic lipase (6000 U/mL), and inhibitors (10×IC50) for three hours. […] Finally, the residence time was calculated by measuring tau determined as the reciprocal of koff after fitting the enzyme progress curves to Equation (1).

C57BL/6J mice [4] = assay: Fasting serum levels of metabolic hormones (ELISA); assay type: in vivo; settings: orlistat 40 mg/kg/day, 8 weeks
Description: Mouse serum was analyzed to quantify total serum ghrelin using a mouse enzyme-linked immunosorbent assay (ELISA) ghrelin kit (EIAM-GHR-1) obtained from Raybiotech (Norcross, GA, USA), serum leptin by mouse leptin Duoset ELISA kit (DY49805) obtained from R&D Systems (Minneapolis, MN, USA), serum adiponectin and insulin by commercial mouse ELISA kits (KMP0041 and EMINS) obtained from Thermo Fisher Scientific (Waltham, MA, USA). All assays were carried out following the manufacturer's instructions. Finally, the absorbances were quantified at 450 nm and turbidity corrections at 590 nm using Multiskan™ FC Microplate Photometer (Waltham, MA, USA).

LSPR
inhibitory activity towards pancreatic lipase (pancreatic lipase): high inhibitory activity

CCCCCCCCCCC[C@@H](C[C@@H]1OC(=O)[C@H]1CCCCCC)OC(=O)[C@H](CC(C)C)NC=O [orlistat]
serum TG concentration vs WD (C57BL/6J mice [1]): effective in lowering
serum total cholesterol vs WD (C57BL/6J mice [1]): no difference
Kidney weight (C57BL/6J mice [2]): 402.08 ± 7.43 a mg
reversibility of pancreatic lipase inhibition ([3]; 30-fold jump dilution): slow reversibility
inhibition of pancreatic lipase (PL) in pre-formed complexes ([3]; inhibitor 10×IC50, monitored for three hours): Complete inhibition
serum ghrelin concentration (C57BL/6J mice [4]): increased

VPPR
inhibitory activity towards pancreatic lipase (pancreatic lipase): high inhibitory activity

TVGPR
inhibitory activity towards pancreatic lipase (pancreatic lipase): high inhibitory activity

LADR
inhibitory activity towards pancreatic lipase (pancreatic lipase): high inhibitory activity
